Results taken from EP0287988A2, “Pyrrole aldehydes, their preparation and use” (CASSELLA Aktiengesellschaft, priority 1987, dated 1988).

System: scopolamininduzierten Amnesie
Assay: Passive avoidance test, scopolamine-induced amnesia (light-dark box, foot shock, latency after 24 h)
Format: in vivo, Mäuse
Conditions: male mice, scopolamine hydrobromide 3 mg/kg i.p.
Procedure: Die Testapparatur ist eine Hell-Dunkel-Box mit elektrifizierbarem Gitterboden im dunklen Teil.
55 Minuten nach Verabreichung von Kontroll-und Präparatinjektion werden unerfahrene männliche Mäuse mit Scopolaminhydrobromid (3 mg/kg i.p.) behendelt. 5 Minuten später werden die Mäuse in den hellen Teil der Box gesetzt. Nach dem Überwechseln in den drunklen Teil der Box erhalten sie einen ihnen unangenehmen elektrischen Fußschock. Nach 24 Stunden wird jede Maus einmal in den hellen Teil der Testapparatur gesetzt und die Verweildauer (max. 180 sec.) gemessen. […] […] Die Ergebnisse sind in Tabelle 2 angegeben.

| Compound | Prozentuale Abschwächung der scopolamininduzierten Amnesie (Dosis 30 mg/kg p.o., latency measured after 24 h (max. 180 sec)) | prozentuale Abschwächung (Dosis 60 mg/kg p.o.) |
| --- | --- | --- |
| 1-(Aminocarbony(methyl)-2,5-dimethylpyrrol-3-aldehyd [Beispiel 13] | 146% | – |
| NC(=O)CN1CCCC1=O [Piracetam] | – | 100% |
